Source: US7544703B2, “Cyclic compound having 4-pyridylalkylthio group having substituted or unsubstituted amino group introduced therein” (Santen Pharmaceutical Co., Ltd., priority 2004, dated 2009)
Where a name gives a salt, the structure may show the parent alone.

Key:
[1] = tested on: choroidal neovascularization models in rats; assay: Neovascularization incidence test using laser-induced choroidal neovascularization models in rats; assay type: in vivo; settings: 168 h; Brown Norway rat, krypton laser photocoagulation; 30 mg/kg/day oral once a day for 7 days; fluorescein fundus photography on day 7; average of 3 to 4 rats and 6 to 8 eyes; read-out: Ratio of neovascularization incidence rate (% of Control)
Procedure: A neovascularization incidence test of the compounds of the present invention was performed using a choroidal neovascularization model in rats, which is one of the widely-used methods of evaluating in vivo choroidal neovascularization inhibitory effects of drugs.
As one of the widely-used methods of evaluating choroidal neovascularization inhibitory effects of drugs, a neovascularization incidence test using choroidal neovascularization models in rats was reported in Graefe's Arch. Cli. Exp. Ophthalmol., 235, 313-319 (1997). According to the method described in the above-mentioned document, a neovascularization incidence test of the compounds of the present invention was performed, the ratio of neovascularization incidence rate of each of the compounds of the present invention administration groups to a neovascularization incidence rate of vehicle administration group (control group) was calculated, and the choroidal neovascularization inhibitory effect of each of the compounds of the present invention was evaluated using the obtained ratio as an index.
A 1% aqueous methyl cellulose solution was added to each test compound to suspend it, whereby a 6 mg/10 mL test compound suspension was prepared.
• 1) A 7:1 mixed solution (1 mL/kg) of a 5% ketamine hydrochloride injection and a 2% xylazine hydrochloride injection was administered intramuscularly to rats (Brown Norway male rat, 8 weeks of age, weight: 200 to 250 g) to anesthetize them systemically. • 2) A tropicamide-phenylephrine hydrochloride ophthalmic solution (trade name: Mydrin-P) was instilled into eyes to cause mydriasis, and then photocoagulation was performed in a Bruch's membrane of each rat using a krypton laser photocoagulation apparatus.
The laser photocoagulation was performed at 8 spots per eye sparsely avoiding thick retinal vessels in a posterior section of ocular fundus and focusing on the deep layer of the retina. Photocoagulation conditions were adjusted to 100 μm of spot size, 100 mW of intensity and 0.1 sec. dulation. • 3) After the photocoagulation, the ocular fundus was photographed to confirm photocoagulation (laser irradiation) sites. (Method of Test and Method of Measurement) • 1) From the laser photocoagulation day (i.e. on day 0) to day 6, the test compound suspension (30 mg/kg/day) was administered orally once a day for 7 consecutive days. • 2) As the vehicle administration group (control group), a test was performed in the same manner as in 1) except that the 1% aqueous methyl cellulose solution was used instead of the test compound suspension, and the result was used as a control. (Method of Evaluation) • 1) On day 7 after the photocoagulation, 0.1 mL of a 10% aqueous fluorescein solution was injected into a tail vein of the rat, and fluorescein fundus photography was performed. • 2) Next, in the fluorescein fundus photography, a spot where fluorescence leak was not observed was judged as negative, and a spot where fluorescence leak was observed was judged as positive. Photocoagulation sites where a little fluorescence leak was observed were judged as positive when two such sites are present. • 3) The neovascularization incidence rate was calculated according to the calculation equation 1. The ratio of the neovascularization incidence rate of the test compound administration group to that of the vehicle administration group was calculated according to the calculation equation 2 using the neovascularization incidence rate of the respective administration groups. […]

[2] = tested on: adjuvant arthritis models in rats; assay: Paw edema inhibitory action test using adjuvant arthritis models in rats; assay type: in vivo; settings: 504 h; Lewis rat, adjuvant-untreated (secondary inflammation) paw, day 21; 10 mg/kg/day oral once a day, day 0 to day 20; average of 8 rats per group; read-out: Paw edema inhibition rate (%)
Procedure: A paw edema inhibitory action test of the compounds of the present invention was performed using an adjuvant arthritis model in rats, which is one of the widely-used methods of evaluating in vivo antiarthritis effects of drugs.
As one of the widely-used methods of evaluating antiarthritic effects of drugs, a paw edema inhibitory action test using adjuvant arthritis models in rats is known. Accordingly, a paw edema inhibitory action test of the compounds of the present invention was performed, the paw edema inhibition rate was calculated, and the antiarthritic effect of each of the compounds of the present invention was evaluated using the obtained rate as an index.
A 1% aqueous methyl cellulose solution was added to each test compound to suspend it, whereby a 2 mg/mL test compound suspension was prepared.
Liquid paraffin was added to Mycobacterium butyricum to suspend it, whereby 6 mg/mL adjuvant was prepared.
• 1) The adjuvant (0.1 mL) was injected subcutaneously into a left hind paw sole of each rat (male, 9 weeks of age, Lewis rat) to induce arthritis. • 2) From the adjuvant injection day (i.e. on day 0) to day 20, the test compound suspension (10 mg/kg/day) was orally administered once a day consecutively. • 3) On the adjuvant injection day, day 1, day 4, day 7, day 11, day 14, day 18 and day 21, each paw volume of both hind paws was measured with a plethysmometer. • 4) A test was performed in the same manner as in 1) to 3) except that the 1% aqueous methyl cellulose solution was used instead of the test compound suspension, and the result was used as a control. (Method of Evaluation)
Each paw edema inhibition rate of paw edema in an adjuvant-untreated paw (secondary inflammation paw) in each test compound administration group to paw edema in a secondary inflammation paw in a control group was calculated, and the antiarthritic effect of each of the compounds of the present invention was evaluated using the obtained rate as an index.
The paw edema rate was calculated according to the following calculation equation 1, and then the paw edema inhibition rate (the average of 8 rats per group), which was used as an index of the antiarthritic effect, was calculated according to the calculation equation 2. Paw edema rate (%)=(Paw volume after adjuvant treatment/paw volume before adjuvant treatment)×100 (Calculation Equation 1) Paw edema inhibition rate (%)=100−{(Sx−100)/(So−100)}×100 (Calculation Equation 2) So: Paw edema rate of control group Sx: Paw edema rate of test compound suspension administration group (Test Results and Discussion)

SMILES | response vs control in vivo at 30 mg/kg/day [1] [%] | inhibition in vivo at 10 mg/kg/day [2] [%]
CNc1cc(CSc2ncccc2C(=O)Nc2ccc(OC(F)(F)F)cc2)ccn1 [Compound 3-8, 2-(2-Methylaminopyridin-4-ylmethylthio)-N-(4-trifluoromethoxyphenyl)pyridine-3-carboxamide monohydrochloride] | 6 | 30
Cc1cc(C)cc(NC(=O)c2cccnc2SCc2ccnc(N)c2)c1 [Compound 3-1, 2-(2-Aminopyridin-4-ylmethylthio)-N-(3,5-dimethylphenyl)pyridine-3-carboxamide monohydrochloride] | 12 | 48
CC(=O)OCC(=O)Nc1cc(CSc2ncccc2C(=O)Nc2cc(C)cc(C)c2)ccn1 [Compound 10-1, 2-(2-Acetoxyacetylaminopyridin-4-ylmethylthio)-N-(3,5-dimethylphenyl)pyridine-3-carboxamide] | 11 | 59
O=C(CO)Nc1cc(CSc2ncccc2C(=O)Nc2ccc(OC(F)(F)F)cc2)ccn1 [Compound 12-1, 2-(2-Hydroxyacetylaminopyridin-4-ylmethylthio)-N-(4-trifluoromethoxyphenyl)pyridine-3-carboxamide] | 6 | 48
CC(=O)Nc1cc(CSc2ncccc2C(=O)Nc2cc(C)cc(C)c2)ccn1 [Compound 4-1, 2-(2-Acetylaminopyridin-4-ylmethylthio)-N-(3,5-dimethylphenyl)pyridine-3-carboxamide] | 3 | 90
CC(=O)Nc1cc(CSc2ncccc2C(=O)Nc2ccc(Cl)cc2)ccn1 [Compound 4-10, 2-(2-Acetylaminopyridin-4-ylmethylthio)-N-(4-chlorophenyl)pyridine-3-carboxamide] | 9 | 71
CNC(=O)Nc1cc(CSc2ncccc2C(=O)Nc2cc(C)cc(C)c2)ccn1 [Compound 9-1, N-(3,5-Dimethylphenyl)-2-[2-(N′-methylureido)pyridin-4-ylmethylthio]pyridine-3-carboxamide] | 8 | 55
Nc1cc(CSc2ncccc2C(=O)Nc2ccc(OC(F)(F)F)cc2)ccn1 [Compound 3-10, 2-(2-Aminopyridin-4-ylmethylthio)-N-(4-trifluoromethoxyphenyl)pyridine-3-carboxamide] | 7 | 35
CC(=O)Nc1cc(CSc2ncccc2C(=O)Nc2ccc(OC(F)(F)F)cc2)ccn1 [Compound 4-11, 2-(2-Acetylaminopyridin-4-ylmethylthio)-N-(4-trifluoromethoxyphenyl)pyridine-3-carboxamide] | 0 | 65
